# Measurements taken from patent publication US3954793A, “1-(2-Propynyl)-1 H-indazole compounds” (priority 1973, dated 1976).
# Tests used:
# CH strain houseflies = assay: spray application of pyrethrum, percent knockdown as a function of time; format: in vivo; settings: pyrethrum 100 + synergist 100 mg/cc
# Description: The average percent knockdown of CH strain flies, as a function of time, resulting from spray application of pyrethrum, alone and with synergists, are given in Table XXXXIII. Duplicate tests were performed using 50 CH strain houseflies per test. Test solutions of 100 mg and 200mg of pyrethrum per cc of acetone, 200 mg of synergist per cc of acetone, and a mixture of 100 mg of pyrethrum and 100 mg of synergist per cc of acetone were prepared. The fifty CH strain houseflies were put in a 40 liter spray chamber and 1 cc of the test solution was sprayed into the test chamber with a spray pistol. The synergists alone at 200 mg/cc caused no knockdown.
# houseflies = assay: topical application with Diazinon, Table XXVII (strain not given); format: in vivo; settings: for mortality at 10 µg/fly: Musca domestica, topical, 24 h, Diazinon 0, synergist 10 μg/fly, read-out: percent kill after 24 hours, synergist alone (Table XXVII)
SMILES,"average percent knockdown, pyrethrum with synergist (CH strain houseflies; 5 minutes) [%]","average percent knockdown, pyrethrum with synergist (CH strain houseflies; 10 minutes) [%]","average percent knockdown, pyrethrum with synergist (CH strain houseflies; 15 minutes) [%]","average percent knockdown, pyrethrum with synergist (CH strain houseflies; 20 minutes) [%]","average percent knockdown, pyrethrum with synergist (CH strain houseflies; 25 minutes) [%]","average percent knockdown, pyrethrum with synergist (CH strain houseflies; 30 minutes) [%]","average percent knockdown, pyrethrum with synergist (CH strain houseflies; 40 minutes) [%]","average percent knockdown, pyrethrum with synergist (CH strain houseflies; 50 minutes) [%]","average percent knockdown, pyrethrum with synergist (CH strain houseflies; 60 minutes) [%]",mortality at 10 µg/fly (houseflies) [%],"percent kill after 24 hours, with Diazinon (Table XXVII) (houseflies; Diazinon 5 + synergist 10 μg/fly) [%]"
C#CCOCc1c(Cl)ccc(Cl)c1Cl [II-E],5,9,17,44,55,59,77,93,95,–,–
C#CCON=Cc1ccc(Cl)cc1Cl [I-G],7,12,31,36,59,66,89,93,94,0,–
C#CCON=C(C)c1ccc(Cl)cc1 [I-D],6,15,26,39,52,60,86,87,88,0,100
C#CCON=Cc1cccc2ccccc12 [I-I],4,7,19,29,40,49,57,86,92,0,–
